The values below come from ChEMBL document CHEMBL1153174, “Structure-activity relationships of N-substituted ligands for the alpha7 nicotinic acetylcholine receptor” (Bioorg Med Chem Lett, 2010).

The source made the active and inactive calls. The calls are words filed in the database; no cut-off is given here. Bounds are passed on as bounds.

Usually Ki stands for a dissociation constant, usually derived from enzyme kinetics or from competition with a known ligand. High values mean lower affinity, low ones higher affinity. What is called EC50 is the concentration at which the effect is half-maximal.

For test [1], the target named is Neuronal acetylcholine receptor subunit alpha-7 (Rattus norvegicus, UniProt Q05941). Nature of the test: Displacement of [3H]585539 from alpha7 nAChR in rat brain. It counts as tissue-based. For orientation: In a radioligand displacement assay an active substance lowers the binding of a labelled ligand.
Neuronal acetylcholine receptor subunit alpha-7 (Rattus norvegicus, UniProt Q05941), sequence (Q05941 whole entry): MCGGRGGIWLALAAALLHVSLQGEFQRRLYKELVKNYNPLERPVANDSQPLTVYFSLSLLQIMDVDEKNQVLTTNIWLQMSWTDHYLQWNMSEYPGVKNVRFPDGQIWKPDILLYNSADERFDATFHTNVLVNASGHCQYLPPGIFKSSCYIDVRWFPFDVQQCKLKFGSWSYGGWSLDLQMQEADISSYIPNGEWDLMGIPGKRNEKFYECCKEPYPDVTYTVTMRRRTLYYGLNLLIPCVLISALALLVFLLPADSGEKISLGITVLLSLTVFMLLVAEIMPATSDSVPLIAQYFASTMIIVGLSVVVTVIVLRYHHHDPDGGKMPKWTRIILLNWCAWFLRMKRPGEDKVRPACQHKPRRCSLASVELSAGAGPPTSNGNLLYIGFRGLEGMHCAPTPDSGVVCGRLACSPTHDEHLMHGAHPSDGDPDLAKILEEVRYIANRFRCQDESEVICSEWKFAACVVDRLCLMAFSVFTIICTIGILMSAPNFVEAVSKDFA
For test [2], the target named is Neuronal acetylcholine receptor; alpha4/beta2 (Rattus norvegicus) (UniProt P09483+P12390). The test can be described thus: Displacement of [3H]cytisine from rat brain alpha4beta2 nAChR up to 10 uM.
Test [3] deals with T1, Neuronal acetylcholine receptor subunit alpha-7 (Homo sapiens, UniProt P36544). Nature of the test: Agonist activity at human recombinant alpha7 nAChR expressed in xenopus oocytes assessed as induction of Ca2+ current. It counts as functional, cell-based, Oocyte.
T1 sequence (P36544 whole entry): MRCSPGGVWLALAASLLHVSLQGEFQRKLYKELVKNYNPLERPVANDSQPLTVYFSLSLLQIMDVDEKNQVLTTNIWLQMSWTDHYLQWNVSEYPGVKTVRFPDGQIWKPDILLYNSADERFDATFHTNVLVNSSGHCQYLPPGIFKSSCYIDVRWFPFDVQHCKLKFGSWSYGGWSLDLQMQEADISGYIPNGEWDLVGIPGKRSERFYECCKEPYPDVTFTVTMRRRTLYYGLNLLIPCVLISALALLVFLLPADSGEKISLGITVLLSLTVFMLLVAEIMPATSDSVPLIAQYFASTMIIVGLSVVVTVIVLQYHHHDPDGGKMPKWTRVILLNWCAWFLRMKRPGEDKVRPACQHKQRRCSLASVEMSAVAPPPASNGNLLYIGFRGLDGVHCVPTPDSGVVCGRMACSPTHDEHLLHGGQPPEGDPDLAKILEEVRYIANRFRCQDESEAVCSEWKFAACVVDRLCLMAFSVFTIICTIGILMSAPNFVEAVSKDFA
Test [4] deals with T1, Neuronal acetylcholine receptor subunit alpha-7. Nature of the test: Agonist activity at human recombinant alpha7 nAChR expressed in xenopus oocytes assessed as induction of Ca2+ current relative to acetylcholine. It counts as functional, cell-based. The note with it: Oocyte.
Test [5] addresses Neuronal acetylcholine receptor; alpha4/beta2 (Homo sapiens, UniProt P17787+P43681). Nature of the test: Inhibition of alpha4beta2 nAChR. It counts as protein-complex assay.
The target of test [6] is Neuronal acetylcholine receptor; alpha3/beta4 (Homo sapiens, UniProt P30926+P32297). The test can be described thus: Inhibition of alpha3beta4 nAChR.
Neuronal acetylcholine receptor; alpha3/beta4, sequence (P30926 whole entry): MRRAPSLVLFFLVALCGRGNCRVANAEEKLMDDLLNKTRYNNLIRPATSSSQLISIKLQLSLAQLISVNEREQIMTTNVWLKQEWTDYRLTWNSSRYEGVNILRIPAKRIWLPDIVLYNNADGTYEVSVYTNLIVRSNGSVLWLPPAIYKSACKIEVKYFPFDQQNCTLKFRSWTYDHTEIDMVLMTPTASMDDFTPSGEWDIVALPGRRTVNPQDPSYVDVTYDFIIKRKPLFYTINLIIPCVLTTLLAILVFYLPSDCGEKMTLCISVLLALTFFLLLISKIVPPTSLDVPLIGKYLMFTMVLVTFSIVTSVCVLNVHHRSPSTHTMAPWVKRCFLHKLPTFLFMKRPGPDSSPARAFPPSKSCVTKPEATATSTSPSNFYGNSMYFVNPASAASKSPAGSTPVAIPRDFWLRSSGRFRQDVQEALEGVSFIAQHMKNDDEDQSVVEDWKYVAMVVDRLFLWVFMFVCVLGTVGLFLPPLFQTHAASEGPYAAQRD
Neuronal acetylcholine receptor; alpha3/beta4, sequence (P32297 whole entry): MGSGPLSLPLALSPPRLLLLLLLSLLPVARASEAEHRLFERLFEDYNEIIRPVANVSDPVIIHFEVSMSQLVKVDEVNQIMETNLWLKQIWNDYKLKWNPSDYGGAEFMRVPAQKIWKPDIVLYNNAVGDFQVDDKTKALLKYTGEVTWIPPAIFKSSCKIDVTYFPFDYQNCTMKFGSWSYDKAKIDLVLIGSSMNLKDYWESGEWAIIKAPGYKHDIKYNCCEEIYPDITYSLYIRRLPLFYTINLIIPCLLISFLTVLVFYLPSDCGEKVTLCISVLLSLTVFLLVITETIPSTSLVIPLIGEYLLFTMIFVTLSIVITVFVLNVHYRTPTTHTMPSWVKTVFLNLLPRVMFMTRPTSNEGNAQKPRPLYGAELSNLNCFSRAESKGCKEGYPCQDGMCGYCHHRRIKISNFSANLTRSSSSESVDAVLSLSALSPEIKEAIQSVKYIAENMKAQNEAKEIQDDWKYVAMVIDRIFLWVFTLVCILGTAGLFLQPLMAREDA

Neuronal acetylcholine receptor; alpha4/beta2, sequence (P17787 whole entry): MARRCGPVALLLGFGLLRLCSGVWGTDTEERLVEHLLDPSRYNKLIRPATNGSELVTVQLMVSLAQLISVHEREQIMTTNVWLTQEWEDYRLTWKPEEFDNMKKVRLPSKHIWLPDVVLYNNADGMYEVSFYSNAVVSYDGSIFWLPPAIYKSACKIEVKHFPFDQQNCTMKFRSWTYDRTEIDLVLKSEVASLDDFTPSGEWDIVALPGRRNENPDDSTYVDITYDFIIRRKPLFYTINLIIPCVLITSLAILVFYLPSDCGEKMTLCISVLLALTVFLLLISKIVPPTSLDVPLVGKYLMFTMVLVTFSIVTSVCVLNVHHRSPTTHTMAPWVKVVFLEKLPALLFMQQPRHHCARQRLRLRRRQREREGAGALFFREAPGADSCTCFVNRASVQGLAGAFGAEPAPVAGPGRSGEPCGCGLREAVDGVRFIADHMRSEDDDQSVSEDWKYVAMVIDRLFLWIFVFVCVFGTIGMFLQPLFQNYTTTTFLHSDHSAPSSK
Neuronal acetylcholine receptor; alpha4/beta2, sequence (P43681 whole entry): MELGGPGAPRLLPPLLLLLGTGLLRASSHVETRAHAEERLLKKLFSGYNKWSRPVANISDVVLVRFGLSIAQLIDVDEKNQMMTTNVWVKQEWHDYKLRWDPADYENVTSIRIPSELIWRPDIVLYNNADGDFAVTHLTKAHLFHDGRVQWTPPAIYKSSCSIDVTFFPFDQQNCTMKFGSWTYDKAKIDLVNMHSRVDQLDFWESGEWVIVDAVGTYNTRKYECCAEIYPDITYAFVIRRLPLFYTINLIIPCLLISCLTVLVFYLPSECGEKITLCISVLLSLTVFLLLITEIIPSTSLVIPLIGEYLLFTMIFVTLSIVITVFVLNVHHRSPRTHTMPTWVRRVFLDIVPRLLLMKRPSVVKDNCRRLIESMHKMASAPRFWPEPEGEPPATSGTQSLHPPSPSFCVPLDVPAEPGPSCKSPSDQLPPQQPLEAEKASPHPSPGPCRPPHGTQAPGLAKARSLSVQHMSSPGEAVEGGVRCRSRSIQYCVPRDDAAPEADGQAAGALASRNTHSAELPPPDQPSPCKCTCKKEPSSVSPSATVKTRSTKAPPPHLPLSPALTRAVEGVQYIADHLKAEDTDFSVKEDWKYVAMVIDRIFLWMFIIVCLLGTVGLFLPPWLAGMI

In the case of `CN(Cc1ccc(Cl)nc1)C1CCN(c2ccc(-c3ccccc3)nn2)C1` (racemic), the inhibitory constant (Ki) in test [1] is over 10 nM. For the same molecule, the outcome in test [2] was inactive.

For the molecule `CN1C[C@@H]2CN(c3ccc(-c4ccccc4)nn3)C[C@@H]2[C@H]1COc1cccnc1`, in test [1], the Ki was found to be 42 nM. Moreover, the half-maximal effective concentration (EC50) in test [3] came out at 12.9 µM. For the same molecule, the Activity in test [4] is 44%.

As to `c1ccc(-c2ccc(N3C[C@H]4CN(Cc5cccnc5)C[C@H]4C3)nn2)cc1`, the affinity in test [1] corresponds to a Ki of 3.6 nM. Also, the outcome in test [2] was inactive. Besides, the EC50 in test [3] came out at 9.36 µM. Also, the Activity in test [4] was 84%.

As to `c1ccc(-c2ccc(N3C[C@H]4CN(Cc5ccccn5)C[C@H]4C3)nn2)cc1`, in test [1], the Ki turned out to be 533 nM. Moreover, the outcome in test [2] was inactive.

Turning to `CN(C)C1CCN(c2ccc(-c3ccccc3)nn2)C1` (racemic), the Ki in test [1] was 478 nM. Also, the result in test [2] was inactive.

On to `CN1C[C@@H]2CN(c3ccc(-c4ccccc4)nn3)C[C@@H]2C1`, for which the results for the inhibition constant Ki in test [5] and in test [6] were over 100 µM and 4.7 µM, respectively.

Molecule `CN1C[C@@H]2CN(c3ccc(-c4ccccc4)nn3)C[C@@H]2[C@@H]1COc1cccnc1` registered a Ki in test [1] of 320 nM. The half-maximal effective concentration (EC50) in test [3] was over 100 µM.

In turn, `Clc1ccc(C2CC3CCC2N3)cn1` (stereo not drawn) displayed an INH in test [5] of 0.1 nM.

In turn, `CN(Cc1ccccn1)C1CCN(c2ccc(-c3ccccc3)nn2)C1` (racemic) gave a Ki in test [1] of over 10000 nM. Besides, the outcome in test [2] was inactive.

Molecule `CNC1CCN(c2ccc(-c3ccccc3)nn2)C1` (stereo not drawn) had a Ki in test [1] of over 10 nM.

In the case of `Clc1ccc(CN2C[C@@H]3CN(c4ccc(-c5ccccc5)nn4)C[C@@H]3C2)cn1`, in test [1], the affinity corresponds to a Ki of 102 nM. The outcome in test [2] was inactive. For the same molecule, in test [3], the EC50 stood at 11.8 µM. Besides, the Activity in test [4] came to 13%.

`CN(Cc1ccncc1)C1CCN(c2ccc(-c3ccccc3)nn2)C1` (racemic) returned a Ki in test [1] of over 10 nM. Further, in test [2], the outcome was inactive.

Turning to `CN(Cc1ccccc1)C1CCN(c2ccc(-c3ccccc3)nn2)C1` (racemic), the inhibition constant Ki in test [1] is over 10000 nM. In addition, the outcome in test [2] was inactive.

In test [1], `c1ccc(CN2C[C@@H]3CN(c4ccc(-c5ccccc5)nn4)C[C@@H]3C2)cc1` returned a Ki of 476 nM. The result in test [2] was inactive.

The molecule `CCN(C)C1CCN(c2ccc(-c3ccccc3)nn2)C1` (racemic) displayed a Ki in test [1] of 746 nM. Besides, in test [2], the outcome was inactive.

For the molecule `c1ccc(-c2ccc(N3C[C@H]4CN(Cc5ccncc5)C[C@H]4C3)nn2)cc1`, the inhibition constant (Ki) in test [1] came to 541 nM. Also, the outcome in test [2] was inactive.

For `CN(Cc1cccnc1)C1CCN(c2ccc(-c3ccccc3)nn2)C1` (racemic), in test [1], the inhibition constant (Ki) is over 10000 nM. Further, the result in test [2] was inactive.

On to `CCN1C[C@@H]2CN(c3ccc(-c4ccccc4)nn3)C[C@@H]2C1`, for which the outcome in test [2] was inactive.
